These compounds were tested against T1, Ubiquitin carboxyl-terminal hydrolase 19 (Homo sapiens, UniProt O94966) (assay: Inhibition of C-terminal His6-tagged recombinant human USP19 using iso-peptide ubiquitin-Lys-TAMRA as substrate incubated for 30 mins and measured after 90 mins by fluorescent polarization assay).
T1 sequence (O94966 whole entry): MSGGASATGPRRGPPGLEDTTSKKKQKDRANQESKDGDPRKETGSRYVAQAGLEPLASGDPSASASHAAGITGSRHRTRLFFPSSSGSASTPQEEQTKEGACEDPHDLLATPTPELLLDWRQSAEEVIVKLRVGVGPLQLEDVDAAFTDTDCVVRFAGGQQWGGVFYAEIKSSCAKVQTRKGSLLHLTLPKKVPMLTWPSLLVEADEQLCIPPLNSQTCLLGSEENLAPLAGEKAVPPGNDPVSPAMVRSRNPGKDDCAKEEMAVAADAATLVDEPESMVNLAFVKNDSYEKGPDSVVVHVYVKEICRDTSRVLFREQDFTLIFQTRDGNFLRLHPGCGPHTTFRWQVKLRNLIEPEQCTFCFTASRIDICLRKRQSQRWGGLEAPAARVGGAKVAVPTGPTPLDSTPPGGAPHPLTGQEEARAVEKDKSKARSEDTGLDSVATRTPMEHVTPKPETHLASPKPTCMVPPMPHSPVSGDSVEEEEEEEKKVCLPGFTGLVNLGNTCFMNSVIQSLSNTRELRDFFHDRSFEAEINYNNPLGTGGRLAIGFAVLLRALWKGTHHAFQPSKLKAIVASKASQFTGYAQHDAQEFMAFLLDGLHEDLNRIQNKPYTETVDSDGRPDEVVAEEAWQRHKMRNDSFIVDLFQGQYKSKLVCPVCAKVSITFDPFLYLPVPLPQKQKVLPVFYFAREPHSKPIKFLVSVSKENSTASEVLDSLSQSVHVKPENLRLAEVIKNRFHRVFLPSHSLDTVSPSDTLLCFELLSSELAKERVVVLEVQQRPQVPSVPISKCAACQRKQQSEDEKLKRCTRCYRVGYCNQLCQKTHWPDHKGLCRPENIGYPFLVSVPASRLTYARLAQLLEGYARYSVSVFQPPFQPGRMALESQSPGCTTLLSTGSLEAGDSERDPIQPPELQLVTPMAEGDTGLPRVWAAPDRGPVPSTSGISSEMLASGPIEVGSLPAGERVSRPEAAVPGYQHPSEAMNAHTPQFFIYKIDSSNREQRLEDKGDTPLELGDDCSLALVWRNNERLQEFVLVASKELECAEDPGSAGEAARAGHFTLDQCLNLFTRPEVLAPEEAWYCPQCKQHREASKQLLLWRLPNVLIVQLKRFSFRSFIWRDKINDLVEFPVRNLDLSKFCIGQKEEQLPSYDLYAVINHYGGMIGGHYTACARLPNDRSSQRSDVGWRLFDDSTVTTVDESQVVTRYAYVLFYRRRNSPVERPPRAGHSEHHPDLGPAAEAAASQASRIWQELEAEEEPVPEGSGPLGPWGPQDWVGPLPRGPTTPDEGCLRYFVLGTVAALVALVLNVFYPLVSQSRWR

IC50, < 500 nM:
CC1(C)CN(C(=O)N2CCNC[C@H]2c2ccccc2)CC[C@@]1(O)Cn1ccc(-c2ccccc2)cc1=O, CC1(C)CN(C(=O)N2CCOC[C@H]2c2ccccc2)CC[C@@]1(O)Cn1cnc(-c2ccccc2)cc1=O, O=C(NCc1ccc(F)c(F)c1)N1CC[C@@](O)(Cn2cnc(-c3ccccc3)cc2=O)C2(CCCC2)C1, O=C(N1CCC(O)(Cn2cnc(-c3ccccc3)cc2=O)C2(CCCC2)C1)N1CCOCC1c1cccs1 (configuration not stated), Cn1cc(-c2cc(=O)n(C[C@]3(O)CCN(C(=O)N4CCOC[C@H]4c4ccc(F)cc4)CC34CCCC4)cn2)cn1, O=C(NCc1cccs1)N1CC[C@@](O)(Cn2cnc(-c3ccccc3)cc2=O)C2(CCCC2)C1, CN(C)c1cc(=O)n(C[C@]2(O)CCN(C(=O)N3CCOC[C@H]3c3ccccc3)CC23CCCC3)cn1, Cn1cc(-c2cc(=O)n(C[C@]3(O)CCN(C(=O)N4CCNC[C@H]4c4ccccc4)CC34CCCC4)cn2)cn1, O=C(N1CC[C@@](O)(Cn2cnc(Cl)cc2=O)C2(CCCC2)C1)N1CCOC[C@H]1c1ccccc1, O=C(N1CCC(O)(Cn2cnc(-c3ccccc3)cc2=O)C2(CCCCC2)C1)N1CCOC[C@H]1c1ccccc1 (some centres not stated), O=C(N[C@H](c1ccccc1)C(F)(F)F)N1CC[C@@](O)(Cn2ccc(-c3ccccc3)cc2=O)C2(CCCC2)C1, O=C(N1CC[C@@](O)(Cn2cnc(Cl)cc2=O)C2(CCCC2)C1)N1CCOC[C@H]1c1ccc(F)cc1, O=C(NCc1ccccc1)N1CCC(O)(Cn2cnc(-c3ccccc3)cc2=O)C2(CCCC2)C1 (configuration not stated), CNc1cc(=O)n(C[C@]2(O)CCN(C(=O)N3CCNC[C@H]3c3ccccc3)CC23CCCC3)cn1, O=C(N1CC[C@@](O)(Cn2cnc(-c3ccc(F)cc3)cc2=O)C2(CCCC2)C1)N1CCNC[C@H]1c1ccccc1, Cn1nccc1-c1cc(=O)n(C[C@]2(O)CCN(C(=O)N3CCOC[C@H]3c3ccc(F)cc3)CC23CCCC3)cn1, O=C(NCc1ccco1)N1CC[C@@](O)(Cn2cnc(-c3ccccc3)cc2=O)C2(CCCC2)C1, O=C(N1CC[C@@](O)(Cn2cnc(-c3ccccc3)cc2=O)C2(CCCC2)C1)N1CCOC[C@H]1c1ccc(F)cc1, CC1(C)CN(C(=O)N2CCOC[C@H]2c2ccccc2)CC[C@@]1(O)Cn1ccc(-c2ccccc2)cc1=O, O=C(N1CC[C@@](O)(Cn2cnc(-c3ccccc3F)cc2=O)C2(CCCC2)C1)N1CCNC[C@H]1c1ccccc1, O=C(NCc1ccccc1)N1CCC(O)(Cn2ccc(-c3ccccc3)cc2=O)C2(CCCC2)C1 (configuration not stated), CC1(C)CN(C(=O)N2CCNC[C@H]2c2ccccc2)CC[C@@]1(O)Cn1cnc(-c2ccccc2)cc1=O, O=C(N1CC[C@@](O)(Cn2cnc(C3CC3)cc2=O)C2(CCCC2)C1)N1CCNC[C@H]1c1ccccc1, COc1ccccc1-c1cc(=O)n(C[C@]2(O)CCN(C(=O)N3CCNC[C@H]3c3ccccc3)CC23CCCC3)cn1, O=C(N1CC[C@@](O)(Cn2cnc(N3CCCC3)cc2=O)C2(CCCC2)C1)N1CCNC[C@H]1c1ccccc1, O=C(N1CC[C@@](O)(Cn2ccc(-c3ccccc3)cc2=O)C2(CCCC2)C1)N1CCNC[C@H]1c1ccccc1, CN(C)C(=O)c1cn(C[C@]2(O)CCN(C(=O)N3CCOC[C@H]3c3ccccc3)CC2(C)C)c(=O)cc1-c1ccccc1, O=C(N1CC[C@@](O)(Cn2cnc(-c3ccccc3)cc2=O)C2(CCCC2)C1)N1CCOC[C@H]1c1ccccc1, Cc1cc(=O)n(C[C@]2(O)CCN(C(=O)N3CCNC[C@H]3c3ccccc3)CC23CCCC3)cn1, CN1CCN(C(=O)N2CC[C@@](O)(Cn3cnc(-c4ccccc4)cc3=O)C3(CCCC3)C2)[C@H](c2ccccc2)C1, O=C(N1CC[C@@](O)(Cn2cnc(N3CCCC3)cc2=O)C2(CCCC2)C1)N1CCOC[C@H]1c1ccccc1, O=C(N1CC[C@@](O)(Cn2cnc(-c3ccccc3)cc2=O)C2(CCCC2)C1)N1CCNC[C@H]1c1ccccc1, O=C(N1CC[C@@](O)(Cn2cnc(C3CC3)cc2=O)C2(CCCC2)C1)N1CCOC[C@H]1c1ccccc1, O=C(N[C@H](c1ccccc1)C(F)(F)F)N1CC[C@@](O)(Cn2cnc(-c3ccccc3)cc2=O)C2(CCCC2)C1, O=C(N1CCC(O)(Cn2cnc(-c3ccccc3)cc2=O)C2(CCC2)C1)N1CCNC[C@H]1c1ccccc1 (some centres not stated), O=C(NCc1c(F)cccc1F)N1CC[C@@](O)(Cn2cnc(-c3ccccc3)cc2=O)C2(CCCC2)C1, O=C(N1CCC(O)(Cn2cnc(-c3ccccc3)cc2=O)C2(CCC2)C1)N1CCOC[C@H]1c1ccccc1 (some centres not stated), O=C(N1CC[C@@](O)(Cn2cnc(-c3ccccc3)cc2=O)C2(CCCC2)C1)N1CCNC[C@@H]1c1ccccc1, Cn1cc(-c2cc(=O)n(C[C@]3(O)CCN(C(=O)N4CCOC[C@H]4c4ccccc4)CC34CCCC4)cn2)cn1, CN(C)c1ccc(-c2cc(=O)n(C[C@]3(O)CCN(C(=O)N4CCNC[C@H]4c4ccccc4)CC34CCCC4)cn2)cc1, O=C(N1CCC(O)(Cn2ncc(-c3ccccc3)cc2=O)C2(CCCC2)C1)N1CCOC[C@H]1c1ccccc1 (some centres not stated), O=C(NCc1ccccc1F)N1CCC(O)(Cn2cnc(-c3ccccc3)cc2=O)C2(CCCC2)C1 (configuration not stated), O=C(N1CC[C@@](O)(Cn2cnc(-c3ccccc3)cc2=O)C2(CCOCC2)C1)N1CCNC[C@H]1c1ccccc1, CS(=O)(=O)c1cn(CC2(O)CCN(C(=O)N3CCNC[C@H]3c3ccccc3)CC23CCCC3)c(=O)cc1-c1ccccc1 (some centres not stated), O=C(N1CC[C@@](O)(Cn2cnc(-c3ccccc3)cc2=O)C2(CCCC2)C1)N1CCC[C@H]1c1ccccc1, O=C(N1CC[C@@](O)(Cn2cnc(-c3ccccc3)cc2=O)C2(CCCC2)C1)N1CCNC[C@H]1c1cccc(F)c1, O=C(N1CCC(O)(Cn2cnc(-c3ccccc3)cc2=O)C2(CCCCC2)C1)N1CCNC[C@H]1c1ccccc1 (some centres not stated), CS(=N)(=O)c1cn(CC2(O)CCN(C(=O)N3CCOC[C@H]3c3ccccc3)CC23CCCC3)c(=O)cc1-c1ccccc1 (some centres not stated), CS(=N)(=O)c1cn(CC2(O)CCN(C(=O)N3CCNC[C@H]3c3ccccc3)CC23CCCC3)c(=O)cc1-c1ccccc1 (some centres not stated), O=C(N1CCC(O)(Cn2cnc(-c3ccccc3)cc2=O)CC1)N1CCNC[C@H]1c1ccccc1, Cn1nccc1-c1cc(=O)n(C[C@]2(O)CCN(C(=O)N3CCNC[C@H]3c3ccccc3)CC23CCCC3)cn1, O=C(N1CC[C@@](O)(Cn2cnc(-c3cccc(F)c3)cc2=O)C2(CCCC2)C1)N1CCNC[C@H]1c1ccccc1, O=C(NCc1cccc(F)c1)N1CC[C@@](O)(Cn2cnc(-c3ccccc3)cc2=O)C2(CCCC2)C1, O=C(NCc1cccc(F)c1F)N1CC[C@@](O)(Cn2cnc(-c3ccccc3)cc2=O)C2(CCCC2)C1, Cn1nccc1-c1cc(=O)n(C[C@]2(O)CCN(C(=O)N3CCOC[C@H]3c3ccccc3)CC23CCCC3)cn1, O=C(NCC1CC(F)(F)C1)N1CC[C@@](O)(Cn2cnc(-c3ccccc3)cc2=O)C2(CCCC2)C1, O=C(NCc1ccc(F)cc1F)N1CC[C@@](O)(Cn2cnc(-c3ccccc3)cc2=O)C2(CCCC2)C1

Source: ChEMBL document CHEMBL5052842, “Pharmaceutical compounds and their use as inhibitors of ubiquitin specific protease 19 (usp19)” (2020)
